Test results taken from publication PMC12951562, “SH2scan: Mapping SH2 Domain-Ligand Binding Selectivity for Inhibitors and Degraders” (Journal of Medicinal Chemistry, 2026).
Like-named read-outs stand apart in the source and are kept apart here. Non-standard residues stand in square brackets, D forms with d. Residues, ends and D or L forms follow the SMILES beside them. pY = N[C@@H](Cc1ccc(OP(=O)(O)O)cc1)C(=O)O

Key:
Assay in all cases: biochemical
Type in all cases: binding
BRK = molecular target: T1, BRK (Homo sapiens, UniProt Q13882); details: for remaining activity at 10 µM: read-out: percent of DMSO vehicle control
T1 construct: the DNA-tagged SH2 domain concentrations used in this study were <0.1 nM; made in house; host or cells: HEK293 (transient transfection; unpurified extract)

GRAP = molecular target: T2, GRAP (Homo sapiens, UniProt Q13588); details: for percent of DMSO vehicle control at 10 µM / remaining activity at 10 µM: read-out: percent of DMSO vehicle control
T2 construct: the DNA-tagged SH2 domain concentrations used in this study were <0.1 nM; made in house; host or cells: HEK293 (transient transfection; unpurified extract)

LNK (SH2B3) = molecular target: T3, LNK (SH2B3) (Homo sapiens, UniProt Q9UQQ2); details: for remaining activity at 10 µM: read-out: percent of DMSO vehicle control
T3 construct: the DNA-tagged SH2 domain concentrations used in this study were <0.1 nM; made in house; host or cells: HEK293 (transient transfection, unpurified extract)

MIST = molecular target: T4, MIST (Homo sapiens, UniProt Q7Z7G1); details: for percent of DMSO vehicle control at 10 µM / remaining activity at 10 µM: read-out: percent of DMSO vehicle control
T4 construct: the DNA-tagged SH2 domain concentrations used in this study were <0.1 nM; made in house; host or cells: HEK293 (transient transfection, unpurified extract)
T4 sequence (Q7Z7G1 309-419 limits assumed): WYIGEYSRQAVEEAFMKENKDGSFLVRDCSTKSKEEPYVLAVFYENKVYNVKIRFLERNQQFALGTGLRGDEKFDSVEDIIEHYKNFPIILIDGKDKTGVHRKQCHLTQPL

PIK3R1(SH2dom.N-term.) = molecular target: T5, PIK3R1(SH2dom.N-term.) (Homo sapiens, UniProt P27986); details: for remaining activity at 10 µM: read-out: percent of DMSO vehicle control
T5 construct: SH2dom.N-term. denotes SH2 domain closest to N-terminus of protein; made in house; host or cells: HEK293 (transient transfection, unpurified extract)

PIK3R2(SH2dom.N-term.) = molecular target: T6, PIK3R2(SH2dom.N-term.) (Homo sapiens, UniProt O00459); details: for remaining activity at 10 µM: read-out: percent of DMSO vehicle control
T6 construct: SH2dom.N-term. denotes SH2 domain closest to N-terminus of protein; made in house; host or cells: HEK293 (transient transfection, unpurified extract)

RASA1(SH2dom.C-term.) = molecular target: T7, RASA1(SH2dom.C-term.) (Homo sapiens, UniProt P20936); details: for remaining activity at 10 µM: read-out: percent of DMSO vehicle control
T7 construct: SH2dom.C-term. denotes SH2 domain closest to C-terminus of protein; made in house; host or cells: HEK293 (transient transfection, unpurified extract)
T7 sequence (P20936 351-441 limits assumed): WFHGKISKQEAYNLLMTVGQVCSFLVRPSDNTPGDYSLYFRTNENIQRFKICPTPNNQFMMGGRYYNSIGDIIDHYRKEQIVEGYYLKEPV

SH2D6 = molecular target: T8, SH2D6 (Homo sapiens, UniProt Q7Z4S9); details: for remaining activity at 10 µM: read-out: percent of DMSO vehicle control
T8 construct: made in house; host or cells: HEK293 (transient transfection), unpurified extract

SHC3 = molecular target: T9, SHC3 (Homo sapiens, UniProt Q92529); details: for remaining activity at 10 µM: read-out: percent of DMSO vehicle control
T9 construct: made in house; host or cells: HEK293 (transient transfection), unpurified extract
T9 sequence (Q92529 1-594): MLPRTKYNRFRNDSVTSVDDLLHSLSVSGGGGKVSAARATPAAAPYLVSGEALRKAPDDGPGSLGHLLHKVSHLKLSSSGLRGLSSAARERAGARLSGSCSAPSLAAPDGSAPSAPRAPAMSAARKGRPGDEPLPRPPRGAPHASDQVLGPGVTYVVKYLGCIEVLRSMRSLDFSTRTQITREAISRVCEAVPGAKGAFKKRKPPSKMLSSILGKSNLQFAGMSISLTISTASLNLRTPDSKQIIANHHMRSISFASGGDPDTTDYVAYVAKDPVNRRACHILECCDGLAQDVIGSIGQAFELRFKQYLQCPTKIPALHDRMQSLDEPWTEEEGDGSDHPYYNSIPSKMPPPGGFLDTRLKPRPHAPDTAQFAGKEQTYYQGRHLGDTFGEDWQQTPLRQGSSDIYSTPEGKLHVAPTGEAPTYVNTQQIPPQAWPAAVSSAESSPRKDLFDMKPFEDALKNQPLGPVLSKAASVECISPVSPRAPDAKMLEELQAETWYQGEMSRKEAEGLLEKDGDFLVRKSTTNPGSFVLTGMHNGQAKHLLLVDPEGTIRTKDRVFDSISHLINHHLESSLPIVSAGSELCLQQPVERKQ

STAT1 = molecular target: T10, STAT1 (Homo sapiens, UniProt P42224); details: for remaining activity at 10 µM: read-out: percent of DMSO vehicle control
T10 construct: made in house; host or cells: HEK293 (transient transfection), unpurified extract
T10 sequence (P42224 1-750): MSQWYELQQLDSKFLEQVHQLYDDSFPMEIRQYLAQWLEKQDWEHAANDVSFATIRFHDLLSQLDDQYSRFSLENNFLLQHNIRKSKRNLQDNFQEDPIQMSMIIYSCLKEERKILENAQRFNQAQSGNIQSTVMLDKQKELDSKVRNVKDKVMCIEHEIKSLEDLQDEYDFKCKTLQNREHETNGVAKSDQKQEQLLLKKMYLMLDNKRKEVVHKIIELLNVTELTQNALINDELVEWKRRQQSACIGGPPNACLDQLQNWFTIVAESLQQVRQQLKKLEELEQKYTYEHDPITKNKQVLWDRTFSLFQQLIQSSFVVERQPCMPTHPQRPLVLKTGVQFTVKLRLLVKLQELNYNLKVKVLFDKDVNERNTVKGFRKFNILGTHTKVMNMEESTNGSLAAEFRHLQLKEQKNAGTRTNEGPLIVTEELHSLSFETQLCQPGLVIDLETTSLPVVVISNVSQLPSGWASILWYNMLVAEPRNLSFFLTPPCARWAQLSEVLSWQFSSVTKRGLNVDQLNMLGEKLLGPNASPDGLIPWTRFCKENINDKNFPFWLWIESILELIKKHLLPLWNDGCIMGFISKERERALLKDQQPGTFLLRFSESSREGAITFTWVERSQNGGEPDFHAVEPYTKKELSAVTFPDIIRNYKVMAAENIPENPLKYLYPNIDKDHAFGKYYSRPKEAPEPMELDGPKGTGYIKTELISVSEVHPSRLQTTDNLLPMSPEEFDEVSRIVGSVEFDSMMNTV

TXK = molecular target: T11, TXK (Homo sapiens, UniProt P42681); details: for remaining activity at 10 µM: read-out: percent of DMSO vehicle control
T11 construct: made in house; host or cells: HEK293 (transient transfection), unpurified extract
T11 sequence (P42681 1-527): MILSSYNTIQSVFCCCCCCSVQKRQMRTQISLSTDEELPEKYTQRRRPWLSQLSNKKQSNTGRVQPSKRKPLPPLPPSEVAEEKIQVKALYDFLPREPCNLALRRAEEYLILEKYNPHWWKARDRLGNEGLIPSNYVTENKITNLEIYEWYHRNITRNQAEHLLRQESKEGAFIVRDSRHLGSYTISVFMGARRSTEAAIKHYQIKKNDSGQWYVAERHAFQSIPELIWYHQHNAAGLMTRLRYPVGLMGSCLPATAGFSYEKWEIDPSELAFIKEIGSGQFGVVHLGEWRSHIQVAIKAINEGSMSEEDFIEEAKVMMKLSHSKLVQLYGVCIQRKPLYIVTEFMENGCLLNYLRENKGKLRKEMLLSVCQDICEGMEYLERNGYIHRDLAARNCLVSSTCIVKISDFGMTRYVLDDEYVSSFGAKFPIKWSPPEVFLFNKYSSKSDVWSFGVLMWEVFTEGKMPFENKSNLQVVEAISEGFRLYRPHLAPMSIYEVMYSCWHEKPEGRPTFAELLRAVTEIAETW

T8 sequence (Q7Z4S9 whole entry): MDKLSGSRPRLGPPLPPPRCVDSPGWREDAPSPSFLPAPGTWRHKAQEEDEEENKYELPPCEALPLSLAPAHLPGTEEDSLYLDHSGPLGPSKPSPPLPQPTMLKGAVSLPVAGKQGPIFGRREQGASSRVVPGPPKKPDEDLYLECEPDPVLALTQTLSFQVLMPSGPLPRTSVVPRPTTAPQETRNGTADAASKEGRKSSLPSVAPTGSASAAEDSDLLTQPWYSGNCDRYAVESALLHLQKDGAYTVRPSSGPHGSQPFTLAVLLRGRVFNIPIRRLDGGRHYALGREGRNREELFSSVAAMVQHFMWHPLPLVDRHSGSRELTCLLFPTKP
T2 sequence (Q13588 60-154 limits assumed): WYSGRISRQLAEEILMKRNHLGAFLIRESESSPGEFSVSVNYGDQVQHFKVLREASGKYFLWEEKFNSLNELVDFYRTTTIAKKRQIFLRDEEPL
T1 sequence (Q13882 78-170 limits assumed): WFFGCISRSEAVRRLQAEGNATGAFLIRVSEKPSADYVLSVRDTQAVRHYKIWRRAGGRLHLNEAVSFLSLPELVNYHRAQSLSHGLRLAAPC
T3 sequence (Q9UQQ2 364-462 limits assumed): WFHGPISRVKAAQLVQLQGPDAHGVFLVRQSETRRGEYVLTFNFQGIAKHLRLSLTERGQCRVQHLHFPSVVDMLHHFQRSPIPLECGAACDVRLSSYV
T6 sequence (O00459 330-425 limits assumed): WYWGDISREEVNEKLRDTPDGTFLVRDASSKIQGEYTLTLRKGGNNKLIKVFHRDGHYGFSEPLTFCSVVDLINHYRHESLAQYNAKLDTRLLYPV
T5 sequence (P27986 333-428 limits assumed): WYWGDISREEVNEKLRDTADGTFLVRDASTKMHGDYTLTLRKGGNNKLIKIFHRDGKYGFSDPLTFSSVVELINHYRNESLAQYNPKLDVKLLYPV

SMILES | remaining activity at 10 µM (BRK) [%] | percent of DMSO vehicle control at 10 µM (GRAP) [%] | remaining activity at 10 µM (LNK (SH2B3)) [%] | percent of DMSO vehicle control at 10 µM (MIST) [%] | remaining activity at 10 µM (PIK3R1(SH2dom.N-term.)) [%] | remaining activity at 10 µM (PIK3R2(SH2dom.N-term.)) [%] | remaining activity at 10 µM (RASA1(SH2dom.C-term.)) [%] | remaining activity at 10 µM (SH2D6) [%] | remaining activity at 10 µM (SHC3) [%] | remaining activity at 10 µM (STAT1) [%] | remaining activity at 10 µM (TXK) [%] | remaining activity at 10 µM (BRK; primary screen, 10 μM) [%] | remaining activity at 10 µM (GRAP; primary screen, 10 μM) [%] | remaining activity at 10 µM (LNK (SH2B3); primary screen, 10 μM) [%] | remaining activity at 10 µM (MIST; primary screen, 10 μM) [%] | remaining activity at 10 µM (PIK3R1(SH2dom.N-term.); primary screen, 10 μM) [%] | remaining activity at 10 µM (PIK3R2(SH2dom.N-term.); primary screen, 10 μM) [%] | remaining activity at 10 µM (RASA1(SH2dom.C-term.); primary screen, 10 μM) [%] | remaining activity at 10 µM (SH2D6; primary screen, 10 μM) [%] | remaining activity at 10 µM (SHC3; primary screen, 10 μM) [%] | also measured
NC(=O)CC[C@H](NC(=O)[C@@H]1CC[C@@H]2CCN(C(=O)CCCCCC#Cc3cccc4c3CN(C3CCC(=O)NC3=O)C4=O)C[C@H](NC(=O)c3cc4cc(C(F)(F)P(=O)(O)O)ccc4[nH]3)C(=O)N21)C(=O)NC(c1ccccc1)c1ccccc1 (stereo partly shown) [SD-36] | 76.9 ± 3.5 | 89.2 ± 4.6 | 86.6 | 104 ± 8.6 | 124 | 132 | 86.6 ± 9.6 | 99.6 ± 3.4 | 74.5 ± 0.8 | 9.1 | 101 ± 9.7 | – | – | – | – | – | – | – | – | – | Kd (STAT1; dose-response): 180 ± 61 nM
CC(C)(C)[C@H](NC(=O)/C=C/c1ccc(OP(=O)(O)O)cc1)C(=O)N1CCC[C@H]1C(=O)N(c1ccccc1)c1ccc(I)cc1 [STAT6-IN-3] | – | – | – | – | – | – | – | – | – | – | – | 4.1 ± 47.5 | 73.5 ± 23.6 | 62 ± 5.7 | 102 ± 8.1 | 85.6 ± 12.9 | 88.4 ± 18.2 | 123 ± 14.3 | 97.5 ± 15.9 | 50.6 ± 6.4 | KD (BRK; dose-response): No Hit; Kd (STAT1; dose-response, read-out: KD): 670 ± 330 nM; remaining activity at 10 µM (STAT1; primary screen, 10 μM): 0.7 ± 0.6%; remaining activity at 10 µM (TXK; primary screen, 10 μM): 85.4 ± 12.9%
CC[C@H](C)[C@H](NC(=O)[C@H](CCC(=O)O)NC(=O)[C@H](CCC(=O)O)NC(=O)[C@H](Cc1ccc(OP(=O)(O)O)cc1)NC(C)=O)C(=O)N[C@@H](CCC(=O)O)C(N)=O [Ac-pYEEIE-NH2] (Ac-[pY]EEIE-NH2) | – | – | – | – | – | – | – | – | – | – | – | – | – | – | – | – | – | – | – | – | percent of DMSO vehicle control (BRK; primary screen, 10 μM): 101.4%; percent of DMSO vehicle control (GRAP; primary screen, 10 μM): 112.9%; percent of DMSO vehicle control (LNK (SH2B3); primary screen, 10 μM): 72.0%; percent of DMSO vehicle control (MIST; primary screen, 10 μM): 55.1%; percent of DMSO vehicle control (PIK3R1(SH2dom.N-term.); primary screen, 10 μM): 87.7%; percent of DMSO vehicle control (PIK3R2(SH2dom.N-term.); primary screen, 10 μM): 74.1%; percent of DMSO vehicle control (RASA1(SH2dom.C-term.); primary screen, 10 μM): 119.3%; percent of DMSO vehicle control (SH2D6; primary screen, 10 μM): 100.6%; percent of DMSO vehicle control (SHC3; primary screen, 10 μM): 98.9±6.8%; percent of DMSO vehicle control (STAT1; primary screen, 10 μM): 69.3%; percent of DMSO vehicle control (TXK; primary screen, 10 μM): 109.9%
O=C(CCl)Nc1cccc(CNC(=O)[C@H](Cc2ccc(OP(=O)(O)O)cc2)NC(=O)Cc2ccc(F)cc2)c1 [MN551] | – | – | – | – | – | – | – | – | – | – | – | 4.7 ± 0.7 | 48.7 | 17.7 ± 5.5 | 102 | 99.8 ± 1.6 | 101 | 107 | 93.6 ± 4.8 | 91.2 ± 1.9 | Kd (LNK (SH2B3); dose-response, read-out: KD): 3900 ± 710 nM; remaining activity at 10 µM (STAT1; primary screen, 10 μM): 49.8 ± 4.1%; remaining activity at 10 µM (TXK; primary screen, 10 μM): 89.1%
CC(=O)N[C@@H](Cc1ccc(CP(=O)(O)O)cc1)C(=O)NC1(C(=O)N[C@@H](CC(N)=O)C(=O)NCCCc2c(O)ccc3ccccc23)CCCCC1 [CGP78850] | 117 ± 12.5 | 0 | 79.1 ± 5.6 | 102 ± 2.3 | 109 ± 5.7 | 141 ± 24.2 | 131 ± 42.7 | 89.5 ± 8.4 | 29.2 ± 2.8 | 71.2 ± 2.1 | 74.4 ± 2.5 | – | – | – | – | – | – | – | – | – | Kd (GRAP): 3.3 nM; Kd (SHC3): 1800 ± 240 nM
CC(=O)N1CC[C@H]2CC[C@@H](C(=O)N[C@@H](CCC(N)=O)C(=O)NC(c3ccccc3)c3ccccc3)N2C(=O)[C@@H](NC(=O)c2cc3cc(C(F)(F)P(=O)(O)O)ccc3[nH]2)C1 [SI-109] | 124 | 141 | 81.4 ± 6.7 | 104 | 134 | 130 | 118 | 96.9 ± 1.7 | 122 | 0 | 118 | – | – | – | – | – | – | – | – | – | Kd (STAT1): 180 ± 35 nM
